Results from ChEMBL document CHEMBL1201862, “PubChem BioAssay data set” (2004).
Activity calls are given as the source filed them.

Columns and labels:
[1] = target: T1, Endoribonuclease toxin MazF (Escherichia coli K-12, UniProt P0AE70); test: MazF toxin RNase activators, dose response, biochemical, fluorescence, single-stranded RNA substrate, uHTS hits (AID 588481); format: functional
T1 sequence (P0AE70 whole entry): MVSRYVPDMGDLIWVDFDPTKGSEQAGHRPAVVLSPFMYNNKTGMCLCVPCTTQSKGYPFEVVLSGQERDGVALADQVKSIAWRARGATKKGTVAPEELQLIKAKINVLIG

[2] = target: T1, Endoribonuclease toxin MazF; test: fluorescent RNA oligo signal without MazF, dose response, counter-screen for MazEF activator project, biochemical, fluorescence, single-stranded RNase substrate (AID 588502); format: functional
[3] = target: ATP-dependent molecular chaperone HSP82 (Candida albicans (strain WO-1) (Yeast), UniProt C4YTQ8); test: loss of DOC-induced GRE-beta-galactosidase reporter signal, dose response, Hsp90 inhibitor project, S. cerevisiae, luminescence (AID 2400); format: functional, cell-based;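 also: beta-galactosidase luminescence from glucocorticoid response element reporter as proxy for Hsp90 function; inhibitor potency where signal loss means Hsp90 inhibition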
[4] = C. albicans growth with fluconazole, confirmation, fluorescence, retest (AID 2467); format: functional, cell-based
[5] = Luminescence Cell-Based Dose Retest to Confirm Inhibitors of Cancer Stem Cells. [Related pubchem assays (depositor defined):AID2717, AID2721]; format: functional, Homo sapiens; conditions: Homo sapiens
[6] = target: T2, Serine/threonine-protein phosphatase (Candida dubliniensis (strain CD36 / CBS 7987 / NCPF 3949 / NRRLY-17841) (Yeast), UniProt B9W6M3); test: calcineurin pathway inhibitors in yeast reporter, dose response, S. cerevisiae, CDRE-lacZ, luminescence, secondary (AID 2388); format: functional, cell-based;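 also: yeast reporter cells carrying a calcineurin-responsive lacZ construct stimulated with calcium chloride; luminescent beta-galactosidase reporter signal in whole cells rather than isolated phosphatase activity; potency for inhibition where a drop in reporter signal means calcineurin blockade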
T2 sequence (B9W6M3 whole entry): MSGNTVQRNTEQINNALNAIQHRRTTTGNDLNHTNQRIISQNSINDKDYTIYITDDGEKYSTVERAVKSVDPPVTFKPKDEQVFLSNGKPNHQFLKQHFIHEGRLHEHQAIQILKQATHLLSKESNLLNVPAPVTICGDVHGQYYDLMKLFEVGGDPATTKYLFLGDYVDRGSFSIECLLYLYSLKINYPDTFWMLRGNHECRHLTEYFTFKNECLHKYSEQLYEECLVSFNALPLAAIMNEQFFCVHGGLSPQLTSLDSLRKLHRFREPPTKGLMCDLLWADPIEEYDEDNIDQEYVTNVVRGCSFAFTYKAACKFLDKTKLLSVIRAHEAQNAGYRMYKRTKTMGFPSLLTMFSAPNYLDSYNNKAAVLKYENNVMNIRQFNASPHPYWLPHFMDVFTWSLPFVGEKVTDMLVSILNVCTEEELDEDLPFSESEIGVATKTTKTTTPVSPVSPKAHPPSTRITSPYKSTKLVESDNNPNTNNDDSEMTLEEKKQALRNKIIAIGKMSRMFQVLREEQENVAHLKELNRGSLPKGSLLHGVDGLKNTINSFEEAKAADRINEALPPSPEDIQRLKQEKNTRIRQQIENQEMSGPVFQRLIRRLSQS

[7] = NIH-3T3 fibroblast cytotoxicity, dose response, cytotoxicity control, cell-based, fluorescence, Alamar Blue, secondary assay (AID 2327); format: functional;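 also: NIH-3T3 mouse fibroblasts cultured with fluconazole at 8 µg/mL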
[8] = tested on: HeLa; test: HeLa cell cytotoxicity, dose response, cytotoxicity control for MITF activator project, CellTiter-Glo luminescence, cherry-pick samples (AID 540259); format: functional, cell-based; conditions: Homo sapiens
[9] = target: T3, Replicative DNA helicase DnaB (Mycobacterium tuberculosis, UniProt P9WMR3); test: DnaB intein splicing inhibitors, dose response, biochemical, cell-free fluorescence (AID 449749); format: functional
T3 sequence (P9WMR3 whole entry): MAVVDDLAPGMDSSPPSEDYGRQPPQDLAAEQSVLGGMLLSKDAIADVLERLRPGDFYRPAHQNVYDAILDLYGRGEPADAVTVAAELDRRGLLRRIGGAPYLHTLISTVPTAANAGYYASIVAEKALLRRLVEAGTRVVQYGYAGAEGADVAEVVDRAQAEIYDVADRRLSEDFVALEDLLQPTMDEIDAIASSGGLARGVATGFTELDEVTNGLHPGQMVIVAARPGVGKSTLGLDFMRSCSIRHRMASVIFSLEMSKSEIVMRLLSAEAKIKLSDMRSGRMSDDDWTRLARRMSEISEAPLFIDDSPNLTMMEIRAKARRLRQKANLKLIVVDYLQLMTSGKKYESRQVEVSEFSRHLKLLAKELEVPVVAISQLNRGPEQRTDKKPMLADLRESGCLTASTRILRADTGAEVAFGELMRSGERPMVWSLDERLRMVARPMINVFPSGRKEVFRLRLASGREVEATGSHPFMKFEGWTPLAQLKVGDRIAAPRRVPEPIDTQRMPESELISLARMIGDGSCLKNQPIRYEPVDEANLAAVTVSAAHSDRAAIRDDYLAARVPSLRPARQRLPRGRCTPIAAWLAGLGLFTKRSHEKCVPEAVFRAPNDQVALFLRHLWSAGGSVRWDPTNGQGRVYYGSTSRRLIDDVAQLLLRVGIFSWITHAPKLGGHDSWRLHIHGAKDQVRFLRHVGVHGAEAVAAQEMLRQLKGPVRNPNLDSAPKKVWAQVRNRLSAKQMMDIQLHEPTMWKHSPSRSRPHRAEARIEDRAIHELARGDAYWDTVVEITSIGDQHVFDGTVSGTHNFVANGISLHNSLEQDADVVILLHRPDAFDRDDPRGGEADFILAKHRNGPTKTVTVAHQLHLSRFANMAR

[10] = target: Genome polyprotein (dengue virus type 2, UniProt P29990); test: Dengue-2 NS5 methyltransferase inhibitors, primary screen, biochemical, confirmation dose response (AID 588689); format: functional
[11] = target: T4, Protein RecA (Mycobacterium tuberculosis, UniProt P9WHJ3); test: Fluorescence Cell-Free Homogeneous Dose Retest to Identify Inhibitors of RecA-Intein Splicing Activity. [Related pubchem assays (depositor defined):AID2097, AID2223, AID489010, AID492950]; format: functional
T4 sequence (P9WHJ3 whole entry): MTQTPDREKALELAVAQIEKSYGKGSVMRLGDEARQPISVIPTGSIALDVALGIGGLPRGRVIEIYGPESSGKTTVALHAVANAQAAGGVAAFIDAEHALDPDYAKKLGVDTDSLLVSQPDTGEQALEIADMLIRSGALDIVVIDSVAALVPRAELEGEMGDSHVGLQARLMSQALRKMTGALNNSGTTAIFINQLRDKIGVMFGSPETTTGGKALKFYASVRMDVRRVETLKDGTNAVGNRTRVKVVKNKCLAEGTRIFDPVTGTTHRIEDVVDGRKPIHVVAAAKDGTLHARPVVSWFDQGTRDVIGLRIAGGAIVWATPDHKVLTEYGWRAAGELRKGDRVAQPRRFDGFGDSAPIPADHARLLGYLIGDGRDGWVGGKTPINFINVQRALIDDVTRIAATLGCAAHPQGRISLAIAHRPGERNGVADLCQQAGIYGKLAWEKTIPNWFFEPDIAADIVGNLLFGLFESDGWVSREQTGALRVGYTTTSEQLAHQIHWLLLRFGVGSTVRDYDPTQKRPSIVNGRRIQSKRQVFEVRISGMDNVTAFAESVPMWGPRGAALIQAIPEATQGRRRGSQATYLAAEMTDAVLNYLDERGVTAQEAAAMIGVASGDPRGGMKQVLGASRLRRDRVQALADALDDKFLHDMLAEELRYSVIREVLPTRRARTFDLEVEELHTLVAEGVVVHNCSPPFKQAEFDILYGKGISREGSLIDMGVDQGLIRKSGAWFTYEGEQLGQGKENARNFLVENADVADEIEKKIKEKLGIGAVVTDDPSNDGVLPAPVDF

[12] = target: Cytochrome P450 2C9 (Homo sapiens, UniProt P11712)
[13] = tested on: H9c2; test: cells; format: functional, cell-based; conditions: Rattus norvegicus, H9c2, Myocardium;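 also: confirmatory concentration-response retest of ultra-high-throughput screening hits for modulation of myocardial damage; cell death induced by hydrogen peroxide oxidative stress; compound pretreatment for 60 min then peroxide exposure for 2 h; potency is for protecting the cells against peroxide damage rather than for killing them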
[14] = target: Intestinal-type alkaline phosphatase (Homo sapiens, UniProt P09923); test: inhibition of human intestinal alkaline phosphatase – biochemical, dose response (AID 488876); format: functional
[15] = target: Intestinal-type alkaline phosphatase (Mus musculus, UniProt P24822); test: PubChem AID 488785; format: functional
[16] = target: T5, Alkaline phosphatase, tissue-nonspecific isozyme (Homo sapiens, UniProt P05186); test: TNAP enzyme inhibition by screening hits, dose response, selectivity assay for mouse IAP inhibitor project, biochemical, human TNAP, uHTS hits (AID 488906); format: functional
T5 sequence (P05186 whole entry): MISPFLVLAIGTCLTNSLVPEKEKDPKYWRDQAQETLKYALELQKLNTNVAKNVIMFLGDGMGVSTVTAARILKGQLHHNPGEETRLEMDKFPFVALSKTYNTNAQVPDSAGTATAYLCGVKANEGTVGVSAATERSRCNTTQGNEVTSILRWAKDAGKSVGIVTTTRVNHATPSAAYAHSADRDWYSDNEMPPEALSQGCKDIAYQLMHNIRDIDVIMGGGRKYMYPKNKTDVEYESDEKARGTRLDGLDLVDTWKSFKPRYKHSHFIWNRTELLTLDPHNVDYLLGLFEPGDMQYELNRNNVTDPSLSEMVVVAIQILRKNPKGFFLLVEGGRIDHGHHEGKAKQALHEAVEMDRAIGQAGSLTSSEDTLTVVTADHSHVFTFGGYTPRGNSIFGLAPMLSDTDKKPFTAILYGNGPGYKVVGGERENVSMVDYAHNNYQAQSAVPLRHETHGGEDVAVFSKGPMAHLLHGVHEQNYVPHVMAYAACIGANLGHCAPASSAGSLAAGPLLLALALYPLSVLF

[17] = target: Large T antigen (Simian virus 40, UniProt P03070); format: functional, Betapolyomavirus macacae;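 also: Confirmatory-stage PubChem screen for compounds that inhibit SV40 T antigen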
[18] = Luminescence Cell-Based Dose Confirmation HTS to Identify Inhibitors of Platelet Dense Granule Release. [Related pubchem assays: 1663 (Primary HTS), 1678 (Summary of Project)]; format: functional
[19] = target: T6, Rac GTPase-activating protein 1 (Homo sapiens, UniProt Q9H0H5); test: MgcRacGAP GTPase-activating activity inhibitors, confirmation, biochemical, ADP Hunter fluorescence, primary and confirmatory (AID 624330); format: functional
T6 sequence (Q9H0H5 whole entry): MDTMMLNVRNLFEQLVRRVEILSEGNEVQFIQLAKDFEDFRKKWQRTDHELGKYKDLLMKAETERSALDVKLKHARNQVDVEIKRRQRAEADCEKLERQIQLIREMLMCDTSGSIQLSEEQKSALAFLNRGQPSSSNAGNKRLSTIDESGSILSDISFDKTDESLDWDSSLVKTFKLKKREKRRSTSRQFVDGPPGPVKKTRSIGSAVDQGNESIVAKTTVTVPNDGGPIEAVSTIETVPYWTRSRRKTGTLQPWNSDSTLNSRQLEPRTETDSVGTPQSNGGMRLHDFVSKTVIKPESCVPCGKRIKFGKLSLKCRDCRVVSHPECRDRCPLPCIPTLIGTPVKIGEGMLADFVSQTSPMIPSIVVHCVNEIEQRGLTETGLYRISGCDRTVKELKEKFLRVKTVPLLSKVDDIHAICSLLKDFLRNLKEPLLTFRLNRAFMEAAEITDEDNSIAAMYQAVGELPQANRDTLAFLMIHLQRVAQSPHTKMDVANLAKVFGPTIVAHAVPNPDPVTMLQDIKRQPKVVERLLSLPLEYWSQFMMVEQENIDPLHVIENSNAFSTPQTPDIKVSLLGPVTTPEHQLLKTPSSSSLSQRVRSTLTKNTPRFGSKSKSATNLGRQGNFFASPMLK

[20] = target: Luciferin 4-monooxygenase (Photinus pyralis, UniProt P08659); test: firefly luciferase enzyme inhibitors, dose response, biochemical, luminescence (AID 1891)
Sequence of Luciferin 4-monooxygenase (P08659 whole entry): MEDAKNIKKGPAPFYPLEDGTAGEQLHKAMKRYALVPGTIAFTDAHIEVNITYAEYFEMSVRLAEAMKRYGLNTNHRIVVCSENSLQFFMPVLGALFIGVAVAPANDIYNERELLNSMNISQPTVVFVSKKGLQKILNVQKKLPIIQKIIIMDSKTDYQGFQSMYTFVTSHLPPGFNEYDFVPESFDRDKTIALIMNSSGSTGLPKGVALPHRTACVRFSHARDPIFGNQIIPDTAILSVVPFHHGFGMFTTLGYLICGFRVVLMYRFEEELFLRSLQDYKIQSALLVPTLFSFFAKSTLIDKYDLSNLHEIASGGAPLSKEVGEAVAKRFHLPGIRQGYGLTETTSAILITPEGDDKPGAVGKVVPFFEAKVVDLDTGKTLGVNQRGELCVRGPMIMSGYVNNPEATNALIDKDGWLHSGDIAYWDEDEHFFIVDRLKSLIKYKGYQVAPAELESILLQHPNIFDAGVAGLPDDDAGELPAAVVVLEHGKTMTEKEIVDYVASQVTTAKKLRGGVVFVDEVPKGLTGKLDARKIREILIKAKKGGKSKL

Sequence of Intestinal-type alkaline phosphatase (Mus musculus, UniProt P24822) (P24822 whole entry): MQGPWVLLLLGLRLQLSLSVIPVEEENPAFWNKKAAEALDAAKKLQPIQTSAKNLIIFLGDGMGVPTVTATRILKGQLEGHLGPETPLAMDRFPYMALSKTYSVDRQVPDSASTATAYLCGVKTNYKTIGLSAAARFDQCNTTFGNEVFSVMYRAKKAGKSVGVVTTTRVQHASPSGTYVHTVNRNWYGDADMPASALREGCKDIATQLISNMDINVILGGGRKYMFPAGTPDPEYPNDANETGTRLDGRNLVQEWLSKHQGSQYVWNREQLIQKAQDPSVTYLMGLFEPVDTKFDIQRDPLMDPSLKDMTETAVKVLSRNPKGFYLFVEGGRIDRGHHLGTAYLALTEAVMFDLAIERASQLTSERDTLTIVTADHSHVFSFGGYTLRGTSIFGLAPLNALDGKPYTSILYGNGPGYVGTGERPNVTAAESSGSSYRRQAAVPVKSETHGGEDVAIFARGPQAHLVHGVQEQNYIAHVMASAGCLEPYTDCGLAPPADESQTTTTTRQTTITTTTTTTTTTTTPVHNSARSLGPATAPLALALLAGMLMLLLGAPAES
Sequence of Intestinal-type alkaline phosphatase (Homo sapiens, UniProt P09923) (P09923 whole entry): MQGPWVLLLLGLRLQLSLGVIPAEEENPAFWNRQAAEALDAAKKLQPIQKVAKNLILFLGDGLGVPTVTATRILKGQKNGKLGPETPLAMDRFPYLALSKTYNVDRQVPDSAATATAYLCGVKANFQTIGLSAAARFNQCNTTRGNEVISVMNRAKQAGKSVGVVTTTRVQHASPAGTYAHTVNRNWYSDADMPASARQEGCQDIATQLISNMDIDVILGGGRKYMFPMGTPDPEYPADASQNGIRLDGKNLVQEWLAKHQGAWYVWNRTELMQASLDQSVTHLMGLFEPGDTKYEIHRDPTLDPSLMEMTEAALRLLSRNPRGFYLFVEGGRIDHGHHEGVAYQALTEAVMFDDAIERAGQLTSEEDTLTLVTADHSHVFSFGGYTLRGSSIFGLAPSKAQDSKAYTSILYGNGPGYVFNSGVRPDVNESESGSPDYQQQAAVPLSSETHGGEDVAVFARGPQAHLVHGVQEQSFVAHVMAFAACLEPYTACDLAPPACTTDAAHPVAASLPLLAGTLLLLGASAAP
Sequence of ATP-dependent molecular chaperone HSP82 (C4YTQ8 whole entry): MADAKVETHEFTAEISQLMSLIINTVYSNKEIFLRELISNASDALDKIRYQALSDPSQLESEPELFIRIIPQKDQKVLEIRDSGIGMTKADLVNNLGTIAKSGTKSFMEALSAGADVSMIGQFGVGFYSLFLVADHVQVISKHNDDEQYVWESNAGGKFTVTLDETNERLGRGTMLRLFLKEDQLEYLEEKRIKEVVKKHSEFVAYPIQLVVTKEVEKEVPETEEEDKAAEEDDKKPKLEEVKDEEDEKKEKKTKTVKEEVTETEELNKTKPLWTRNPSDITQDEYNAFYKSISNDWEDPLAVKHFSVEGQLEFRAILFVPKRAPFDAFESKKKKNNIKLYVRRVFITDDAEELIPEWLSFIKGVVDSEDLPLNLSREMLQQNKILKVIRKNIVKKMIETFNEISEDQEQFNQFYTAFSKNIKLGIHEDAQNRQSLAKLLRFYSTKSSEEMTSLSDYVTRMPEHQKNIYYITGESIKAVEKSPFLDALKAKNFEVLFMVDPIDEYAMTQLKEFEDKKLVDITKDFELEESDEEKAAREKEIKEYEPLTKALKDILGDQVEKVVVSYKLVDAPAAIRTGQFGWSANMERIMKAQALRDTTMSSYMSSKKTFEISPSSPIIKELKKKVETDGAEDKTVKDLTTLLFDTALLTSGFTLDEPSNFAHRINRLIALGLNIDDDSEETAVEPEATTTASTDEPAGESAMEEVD
Sequence of Genome polyprotein (P29990 2492-3391 limits assumed): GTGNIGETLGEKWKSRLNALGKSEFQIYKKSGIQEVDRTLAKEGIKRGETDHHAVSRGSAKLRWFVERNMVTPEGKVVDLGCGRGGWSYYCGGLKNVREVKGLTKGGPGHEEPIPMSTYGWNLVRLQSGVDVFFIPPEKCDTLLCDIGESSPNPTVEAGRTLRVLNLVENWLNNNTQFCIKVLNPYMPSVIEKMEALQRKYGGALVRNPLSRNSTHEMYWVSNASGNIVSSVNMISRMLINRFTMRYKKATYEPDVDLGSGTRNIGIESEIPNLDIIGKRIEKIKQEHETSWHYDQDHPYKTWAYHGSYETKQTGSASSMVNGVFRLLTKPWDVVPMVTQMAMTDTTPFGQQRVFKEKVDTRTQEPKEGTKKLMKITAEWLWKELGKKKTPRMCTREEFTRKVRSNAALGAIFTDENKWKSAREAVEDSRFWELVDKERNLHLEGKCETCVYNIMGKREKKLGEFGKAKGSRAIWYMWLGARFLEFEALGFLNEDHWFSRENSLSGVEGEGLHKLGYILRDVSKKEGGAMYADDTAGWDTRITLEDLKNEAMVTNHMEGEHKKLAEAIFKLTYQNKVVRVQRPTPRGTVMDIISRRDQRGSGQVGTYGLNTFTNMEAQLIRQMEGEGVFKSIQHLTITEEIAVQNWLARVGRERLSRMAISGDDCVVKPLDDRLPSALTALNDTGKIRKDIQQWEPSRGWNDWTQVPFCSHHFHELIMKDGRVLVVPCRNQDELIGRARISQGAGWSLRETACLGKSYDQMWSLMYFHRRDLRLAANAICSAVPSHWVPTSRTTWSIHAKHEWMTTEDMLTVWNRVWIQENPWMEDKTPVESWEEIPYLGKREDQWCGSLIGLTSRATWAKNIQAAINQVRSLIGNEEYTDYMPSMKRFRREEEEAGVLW
Sequence of Cytochrome P450 2C9 (P11712 whole entry): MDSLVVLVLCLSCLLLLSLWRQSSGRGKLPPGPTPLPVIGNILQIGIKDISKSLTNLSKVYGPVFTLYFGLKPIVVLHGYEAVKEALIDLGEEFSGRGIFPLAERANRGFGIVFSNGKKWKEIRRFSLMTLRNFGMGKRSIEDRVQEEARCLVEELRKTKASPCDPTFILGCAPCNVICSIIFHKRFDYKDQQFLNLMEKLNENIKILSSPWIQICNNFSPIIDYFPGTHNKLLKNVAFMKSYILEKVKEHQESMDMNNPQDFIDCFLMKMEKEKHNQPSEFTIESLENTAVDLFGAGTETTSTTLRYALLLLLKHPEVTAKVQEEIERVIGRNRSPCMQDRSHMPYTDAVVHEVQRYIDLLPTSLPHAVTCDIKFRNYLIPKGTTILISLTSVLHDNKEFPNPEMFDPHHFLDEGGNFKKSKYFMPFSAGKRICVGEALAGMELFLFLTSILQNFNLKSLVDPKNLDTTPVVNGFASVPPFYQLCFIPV
Sequence of Large T antigen (P03070 whole entry): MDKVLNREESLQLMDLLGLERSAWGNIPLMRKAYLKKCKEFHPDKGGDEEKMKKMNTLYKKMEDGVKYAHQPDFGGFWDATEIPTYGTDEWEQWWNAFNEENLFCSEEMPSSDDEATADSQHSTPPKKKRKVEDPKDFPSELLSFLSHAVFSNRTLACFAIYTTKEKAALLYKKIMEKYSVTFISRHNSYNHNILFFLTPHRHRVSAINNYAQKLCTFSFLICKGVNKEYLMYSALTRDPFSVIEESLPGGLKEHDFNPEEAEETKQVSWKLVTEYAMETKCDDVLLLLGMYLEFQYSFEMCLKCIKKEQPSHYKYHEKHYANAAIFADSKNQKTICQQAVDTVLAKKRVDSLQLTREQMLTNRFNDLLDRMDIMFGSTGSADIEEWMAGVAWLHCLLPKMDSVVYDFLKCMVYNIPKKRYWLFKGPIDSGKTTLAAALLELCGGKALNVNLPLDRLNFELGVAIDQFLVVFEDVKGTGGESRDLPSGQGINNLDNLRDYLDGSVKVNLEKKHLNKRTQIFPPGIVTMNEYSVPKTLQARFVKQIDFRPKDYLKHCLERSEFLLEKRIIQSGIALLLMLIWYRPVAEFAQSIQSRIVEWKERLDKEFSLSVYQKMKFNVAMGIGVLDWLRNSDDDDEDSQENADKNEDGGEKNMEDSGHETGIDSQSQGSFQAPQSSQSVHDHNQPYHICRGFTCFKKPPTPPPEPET

With `CC1=NN(c2ccccc2)C(=O)/C1=C/c1cc(C)n(C2CC2)c1C` the EC50 [1] was > 99 µM (inactive) and the EC50 [2] was > 99 µM (inactive).
In the case of `CCCC(=O)NC(c1ccco1)c1cc([N+](=O)[O-])c2cccnc2c1O` (stereo not given), the EC50 [3] was > 150 µM (inactive), the EC50 [4] was 0.826 µM (active) and the AC50 [5] was 2.02 µM (active). For the same compound, the EC50 [6] was > 180 µM (inactive) and the EC50 [7] was 20.3 µM (active).
For `Cc1ccc(OC(=O)c2cccc(S(=O)(=O)N3CCCC3)c2)c(-n2nc3ccccc3n2)c1`, the AC50 [8] was 260 µM (active).
For `Cc1nn(-c2ccccc2)c2c1C(c1cccs1)C(C#N)=C(N)O2` (stereo not given), the AC50 [9] was 7 µM (active), the IC50 [10] was > 100 µM (active) and the EC50 [11] was 1.83 µM (active).
In the case of `Clc1ccc(-c2nnc(CCc3ccccc3)o2)c(Cl)c1`, the AC50 [8] was 78.9 µM (active) and the AC50 [12] was 39.8 µM (inconclusive).
With `CC(C)(C)c1ccc(OCCCC(=O)NNC(=O)c2ccccc2O)cc1` the EC50 [3] was > 160 µM (inactive), the IC50 [13] was > 79 µM (inactive) and the EC50 [4] was > 38 µM (not active). The EC50 [6] was > 180 µM (inactive) and the EC50 [7] was 51 µM (inconclusive).
With `COc1ccc2nc(SCC(C)=O)c(C#N)cc2c1` the EC50 [1] was > 99 µM (inactive) and the EC50 [2] was 16.5 µM (active).
For `O=C1/C(=C/c2cccnc2)CCc2c1[nH]c1ccccc21`, the EC50 [3] was > 150 µM (inactive), the AC50 [8] was 18.7 µM (active) and the EC50 [4] was 1.95 µM (active). For the same compound, the EC50 [6] was > 180 µM (inactive) and the EC50 [7] was > 160 µM (inactive).
In the case of `C=CCn1cc(CN2CCC(C(=O)Nc3cccc(-c4cccc(Cl)c4)c3)CC2)c(C)n1`, the IC50 [14] was 14.3 µM (active), the IC50 [15] was 10.3 µM (active) and the IC50 [16] was 5.84 µM (active).
With `O=c1oc(-c2cccs2)nc2sc3c(c12)CCCCC3` the AC50 [8] was 47.1 µM (active).
For `O=C1c2cccc(O)c2C(=O)c2c(O)cc(CO)cc21` [ALOE-EMODIN], the IC50 [14] was > 100 µM (inactive), the IC50 [15] was 2.88 µM (active) and the IC50 [16] was > 100 µM (inactive).
With `Cc1ccc(C(c2c(O)n3c(nc2=O)SCC3)c2c(O)n3c(nc2=O)SCC3)cc1` the IC50 [10] was 84.2 µM (active).
In the case of `Cc1nonc1C(=O)N/N=C/c1ccc(O)c(O)c1`, the IC50 [17] was 3.81 µM (active), the EC50 [18] was 0.868 µM (active) and the IC50 [19] was 18.6 µM (active). For the same compound, the IC50 [14] was 14 µM (active), the EC50 [20] was 4.26 µM (active) and the IC50 [15] was 9.92 µM (active). For the same compound, the IC50 [16] was 16.8 µM (active).
